The source of these data is PubChem BioAssay AID1053120 (Broad Institute, 2014).

Active and inactive are the calls of the source. How the calls were made is not given here.

System in one test: not listed separately
Briefly: nonspecific luciferase activators in D54 LucT cells, dose response, counter-screen for N-linked glycosylation inhibitor project, cell-based, dry powder, set 2 (AID 1053120). The following applies: D54 LucT luciferase reporter (no NLG), luminescence, 24 h; at 19.5 µM (top of the series).
`COc1cccc2sc(NC(=O)c3cc(S(=O)(=O)N(C)C)ccc3N3CCCC3)nc12`: the luciferase activation is -50% (inactive).

With `C/C(=N\NC(=O)c1c([N+](=O)[O-])c(C)nn1C)c1ccc(NC(=O)C2CCCC2)cc1`, the luciferase activation is 0% (inactive).

`Brc1ccc(CSc2nnc(-c3ccccc3)o2)cc1`: the luciferase activation is 0% (inactive).

On to `Cc1cc(NC(=O)CSc2nc(-c3ccco3)cc(C(F)(F)F)n2)no1`, for which the luciferase activation is 0% (inactive). On to `Cc1csc(NC(=O)c2cc(S(=O)(=O)N(C)C)ccc2N2CCCC2)n1`, for which the luciferase activation was 50% (inactive). On the same count and under the same terms, to `O=C(Cc1ccccc1)c1nnc(-c2ccccc2)o1` belongs 33.3% (inactive); to `CC(=O)c1ccc(Oc2cc(C)nc(-n3nc(C)cc3C)n2)cc1`, 0% (inactive). On the same count and under the same terms, to `O=C1CCNc2cc3ccccc3cc21` belongs -66.7% (inactive); to `CC(=O)N[C@H]1[C@@H](O[C@@H]2OC(C[C@@H](O)C3O[C@@H](n4ccc(=O)[nH]c4=O)[C@H](O)[C@@H]3O)[C@H](O)[C@H](O)[C@H]2NC(=O)/C=C/CCCCCCCCCCC(C)C)O[C@H](CO)[C@@H](O)[C@@H]1O` (some centres not stated), -50% (inactive); to `Cc1ccc2cc(CN(CCCN(C)C)C(=O)NCc3ccccc3)c(=O)[nH]c2c1C`, 50% (inactive). Same read-out and setting: to `CCOc1ccc(NC(=O)c2cc(OC)nc3ccccc23)cc1` belongs 0% (inactive).

For the compound `Cc1cc(=O)[nH]c(N/N=C/c2cc(C)n(CC(F)(F)F)c2C)n1`, the luciferase activation was 0% (inactive). Same read-out and setting: to `COc1ccc(NC(=O)C(=O)c2cn(CC(=O)N3CCCC3)c3ccccc23)cc1` belongs -33.3% (inactive); to `COc1ccccc1OCC(=O)NNC(=O)c1ccoc1C`, 33.3% (inactive); to `Cc1cnc(NC(=O)c2cc(S(=O)(=O)N3CCCC3)ccc2N2CCCC2)s1`, -20% (inactive). For `Cc1cnc(NC(=O)c2cc(S(=O)(=O)N3CCCCC3)ccc2N2CCCC2)s1`, the luciferase activation was 50% (inactive). Still for that read-out and setting: to `Cc1cnc(NC(=O)c2cc(S(=O)(=O)N3CCOCC3)ccc2N2CCCC2)s1` belongs -20% (inactive); to `Cc1cccc(C)c1OCCNC(=O)C(=O)NCc1ccco1`, 33.3% (inactive).

Take `CCN(CC)CCCNc1nc2cc(OC)c(OC)cc2c2nc(-c3ccccc3)nn12`: the luciferase activation is -33.3% (inactive). For the compound `O=C1CCN(Cc2ccccc2)c2cc3ccccc3cc21`, the luciferase activation was 0% (inactive). As for `COc1ccc2sc(NC(=O)c3cc(S(=O)(=O)N(C)C)ccc3N3CCCC3)nc2c1`, the luciferase activation is -50% (inactive). With `Cc1ccc(C(=O)c2cc([N+](=O)[O-])ccc2N2CCOCC2)cc1C`, the luciferase activation was 66.7% (inactive).

Turning to `Cc1ccc(CCC(=O)Nc2ncc(Cc3cc(Cl)ccc3Cl)s2)o1`, the luciferase activation was -33.3% (inactive). On the same count and under the same terms, to `Cc1[nH][nH]c(=O)c1C(c1ccc(-c2ccc(Cl)c(Cl)c2)o1)c1c(C)[nH][nH]c1=O` belongs 0% (inactive).

As to `Cc1ccc(NC(=O)c2cc(S(=O)(=O)N(C)C)ccc2N2CCCC2)cc1`, the luciferase activation is 0% (inactive). The same measure, in the same setting: to `CC(=O)c1cccc(NC(=O)CSc2ncc(C(=O)Nc3ccccc3)c(=O)n2C)c1` belongs 33.3% (inactive); to `CCN(CC)CCOc1ccc2c(c1)C(=NNC(=O)c1ccccn1)c1cc(OCCN(CC)CC)ccc1-2`, -33.3% (inactive); to `CCCCOc1ccccc1C1CC(=O)NC2=C1C(=O)CCC2` (configuration not stated), 0% (inactive).

Take `CN(C)S(=O)(=O)c1ccc(N2CCCC2)c(C(=O)Nc2ccccc2)c1`: the luciferase activation was 20% (inactive). Same read-out and setting: the same measure for `Cc1cc(C)nc(/N=C(\N)Nc2ccc(OCc3ccccc3)cc2)n1`: -33.3% (inactive); for `COc1cccc(N2CCN(C(=O)c3ccc(CS(=O)c4ccc(C)cc4)o3)CC2)c1` (configuration not stated): 0% (inactive).

For `COc1ccc2c(COC(=O)c3cccc(S(=O)(=O)NCC(C)C)c3)cc(=O)oc2c1`, the luciferase activation was 66.7% (inactive). Still for that read-out and setting: to `Cc1ccc(Oc2ccc(S(=O)(=O)N3CCOCC3)cc2C(N)=O)c(-n2nc3ccccc3n2)c1` belongs 33.3% (inactive).

Take `CCn1c2ccccc2c2cc(NC(=O)c3cc(OC)c(OC)c(OC)c3)ccc21`: the luciferase activation was -33.3% (inactive). Same read-out and setting: the same measure for `Cc1ccc2cc(CN(CCCN(C)C)C(=O)Nc3ccccc3)c(=O)[nH]c2c1C`: 0% (inactive). Still for that read-out and setting: to `CN(C)S(=O)(=O)c1ccc(N2CCCC2)c(C(=O)Nc2nc3ccccc3s2)c1` belongs 0% (inactive); to `COc1cc(Nc2c3c(nc4ccccc24)CCCC3)cc(OC)c1OC`, 0% (inactive); to `CC(=O)N1CCC(=O)c2cc3ccccc3cc21`, 33.3% (inactive). Still for that read-out and setting: to `CCC1=Nc2cc(C(=O)NCCCOC)ccc2Sc2ccccc21` belongs -33.3% (inactive); to `COc1ccc(CSc2nnc(-c3ccccc3)o2)cc1`, 50% (inactive); to `Cc1cnc(NC(=O)c2cc(S(=O)(=O)N(C)C)ccc2N2CCCC2)s1`, 0% (inactive). As to `CCN(CC)CCC(=O)Nc1cccc2c1C(=O)c1ccccc1C2=O`, the luciferase activation is -33.3% (inactive).

For the compound `CCOc1ccc(S(=O)(=O)NCc2ccccn2)cc1NC(=O)c1ccccc1F`, the luciferase activation is 0% (inactive). As for `CN(C)CCCN(Cc1cc2ccccc2[nH]c1=O)C(=O)Nc1ccccc1`, the luciferase activation was 20% (inactive). Still for that read-out and setting: the same measure for `Cc1cnc(NC(=O)c2cc(S(=O)(=O)N(C)C)ccc2N2CCC2)s1`: -20% (inactive); for `COc1ccc2nc(NC(=O)c3cc(S(=O)(=O)N(C)C)ccc3N3CCCC3)sc2c1`: 0% (inactive). On the same count and under the same terms, the same measure for `Cc1cc(C)cc(C(=O)N2CC(=O)Nc3ccccc32)c1`: 33.3% (inactive); for `CCCOC(=O)c1[nH]c2c(c1C)C(=O)CC(c1cccs1)C2` (configuration not stated): 50% (inactive). Still for that read-out and setting: to `CN(C)CCCN(Cc1cc2ccccc2[nH]c1=O)C(=O)NCc1ccccc1` belongs 0% (inactive).

In the case of `CN(C)S(=O)(=O)c1ccc(N2CCCC2)c(C(=O)Nc2nccs2)c1`, the luciferase activation is 20% (inactive). Turning to `COc1cc(C(=O)NCCOc2cc(C)cc(C)c2)cc(OC)c1OC`, the luciferase activation is 33.3% (inactive). Still for that read-out and setting: the same measure for `CCOC(=O)COc1cccc2c(=O)n(CC(=O)NCc3ccccc3)ccc12`: 0% (inactive).

The next test has as its system D54 LucT luciferase reporter (no NLG), luminescence, 24 h. The test is described as above.
Conditions: not given
Consider `CCCNS(=O)(=O)c1cccc(C(=O)OCc2cc(=O)oc3cc(OC)ccc23)c1`, for which the AC40 was 2140 nM. Same read-out and setting: the same measure for `COc1ccc(-c2nnc(SCc3ccccc3)o2)cc1`: 5120 nM; for `COC(=O)c1cn(C(=O)c2ccc(OC)cc2)c2ccccc12`: 15400 nM.

For the compound `COc1ccccc1CSc1nnc(-c2ccccc2)o1`, the AC40 is 845 nM. On to `Nc1nc(=S)c2ncn([C@@H]3O[C@H](CO)[C@@H](O)[C@H]3O)c2[nH]1`, for which the AC40 was 5190 nM. On the same count and under the same terms, to `O=C(N/N=C/c1ccc(Cl)cc1)c1sccc1OCc1ccc(F)cc1` belongs 1600 nM; to `Cc1ccc(/C=N/NC(=O)C2COc3ccccc3O2)s1` (configuration not stated), 15300 nM; to `CCOC(=O)c1ccc(Oc2cc(C)nc(SC)n2)cc1`, 3390 nM. Still for that read-out and setting: to `COc1ccccc1-c1nnc(SCc2ccccc2)o1` belongs 632 nM; to `COc1cc(-c2nnc(SCC3(c4ccc(Br)cc4)OCCO3)o2)cc(OC)c1OC`, 930 nM.
